Reference: US20040224995A1 (University of North Texas Health Science Center at Fort …, priority 2003, published 2004)

Legend:
[1] = system: ischemic lesion after MCAO; experiment: Middle cerebral artery occlusion (MCAO) in ovariectomized female rats; format: in vivo, rat
Text: (§1) Evaluating the role of cyclopentenone PGs and TZD's has also been completed in vivo. […] Troglitazone reduced the resulting infarct size by about 50% compared to vehicle (corn oil treated animals). This effective protection from a transient focal ischemic event by troglitazone argues that selective PPARγ agonists may be useful neuroprotectants during neurodegenerative events (e.g. stroke).
(§2) As shown below, the results from our experiments comprise results that indicate potent neuroprotective TZD's, as were used in neuronal cell lines are also effective in an animal model. Although not wanting to be bound by theory, the rat is the appropriate animal model for assessing the effects of drugs on neuronal damage, as the compounds to be evaluated are intended for use in humans. […] Female Sprague Dawley rats were purchased from Harlan in Indianapolis, Ind. Rats were housed in pairs in hanging, stainless steel cages in a temperature-controlled rooms (25±1° C.) with a daily light cycle (on from 0700 to 1900 h daily). All rats were allowed free access to laboratory chow and tap water. All procedures performed on animals will were reviewed and approved by the University of North Texas Health Science Center Institutional Animal Care and Use Committee (“ACUC”).
(§3) The female Sprague Dawley rats (225-250 g BW) were bilaterally ovariectomized using a dorsal approach. Animals were anesthetized with ketamine ([…]) and xylazine (10 mg/kg). A small (1 cm) cut was made through the skin, fascia, and muscle. […] Percent ischemic lesion area was calculated. * indicates p<0.05 vs. respective control group. […]
(§4) Each group of animals was decapitated 24 h after MCAO. […] Slices were then fixed in a 10% formalin and photographed by a digital camera (Sony MVC-FD5), and the ischemic lesion area were determined for each slice using the Image-Pro Plus software (Media Cybernectics, Silver Spring, Md.). Percent ischemic lesion area was calculated as the sum of the ischemic lesion area for the five slices divided by the total cross sectional area of these five slices.

[2] = as above; format: in vivo, rat; settings: rats, doses given prior to MCA occlusion
Text: as §1, §2, §3, §4

[3] = system: γ-glutamyl-cysteine synthetase (GCS) catalytic and regulatory subunits; experiment: Western blot of GCS subunits in HT-22 cells; format: cell-based, mouse; settings: compound 24 h before glutamate or H2O2, also independent of glutamate
Protocol: Determining γ-glutamylcysteine synthetase (“GCS”) protein levels was determined using Western blotting analysis, as shown in FIGS. 28 and 29. Antibodies against the heavy (catalytic) and light (regulatory) subunits, GCSH and GCSL, respectively, were ordered from Santa Cruz Biotechnology, Santa Cruz, Calif. Anti-β-actin polyclonal antibody was obtained from Biomedical Technologies Inc. (Stoughton, Mass.). Cyclopentenone PGs treated and untreated HT-22, C6, and RGC-5 cells were homogenized in a buffer containing 20 mM HEPES, pH 7.4, 2 mM […], 1 mM EGTA, […], 2 mm DTE, and […] aprotonin. Cells were sonicated to disrupt cell membranes, and Triton X-100 was added to a final concentration of 0.05% to solubilize membrane bound proteins. Equal amounts of proteins, as determined by the Bradford method, were separated by SDS-PAGE and transferred to polyvinylidene fluoride membrane (Millipore, Bedford, Mass.) in a BiORad (Hercules, Calif.) trans-Blot electrophoresis apparatus at 100 V for 2 hr using Towbin's buffer [25 mm Tris, pH 8.3, 192 mM glycine, and 20% methanol]. […] Equal amounts of proteins, as determined by the Bradford method, were separated by SDS-PAGE and transferred to PVDF membrane. […] […]

Row | SMILES | reduction of infarct size compared to vehicle ([1]; rats treated prior to MCA occlusion, vehicle corn oil) | reduction of ischemic lesion area compared to control animals ([1]; s.c. injection 12 h and 2 h before MCAO, 60 min occlusion, 24 h reperfusion) | brain concentrations [2] | expression of catalytic (C) and regulatory (R) subunits of GCS [3]
1 | Cc1c(C)c2c(c(C)c1O)CCC(C)(COc1ccc(CC3SC(=O)NC3=O)cc1)O2 (stereo not shown) [troglitazone] | about 50% | about 50% | about 7 μM | –
2 | CCCCC/C=C/C=C1/C(=O)C=C[C@@H]1C/C=C\CCCC(=O)O [15d-PGJ2, 15-deoxy-Δ^12,14-PGJ2] | – | – | – | upregulates
